Holding throughout (format): functional
Test [1] deals with Pseudomonas aeruginosa. Nature of the test: Antibacterial activity against Pseudomonas aeruginosa 101885 assessed as fractional inhibitory concentration incubated for 18 hrs in presence of rifampicin by broth microdilution assay.
Test [2] relates to Pseudomonas aeruginosa. The experiment in a line: Potentiation of doxycycline-induced antibacterial activity against Pseudomonas aeruginosa 262-101856 assessed as fold change in doxycycline MIC at 9.8 uM incubated for 18 hrs in presence of doxycycline by broth microdilution assay relative to control. (Dilution methods test growth across graded concentrations, often in twofold steps.)

Test [3] concerns Pseudomonas aeruginosa. Nature of the test: Antibacterial activity against Pseudomonas aeruginosa 264-101354 assessed as potentiation of doxycycline-induced antibacterial activity by measuring doxycycline MIC at 9.8 uM incubated for 18 hrs in presence of doxycycline by broth microdilution assay (reference value: 64 ug/ml).

In general, MIC refers to the smallest concentration in the dilution series that meets the test's criterion for growth inhibition. Turning to `CO[C@H]1/C=C/O[C@@]2(C)Oc3c(C)c(O)c4c(O)c(c(/C=N/N5CCN(Cc6cn(CCCCCCO[C@@H]7[C@@H](O[C@H]8O[C@H](CO)[C@@H](O)[C@H](N)[C@H]8O)[C@H](N)C[C@H](N)[C@H]7O[C@H]7O[C@H](CN)[C@@H](O)C[C@H]7N)nn6)CC5)c(O)c4c3C2=O)NC(=O)/C(C)=C\C=C\[C@H](C)[C@H](O)[C@@H](C)[C@@H](O)[C@@H](C)[C@H](OC(C)=O)[C@@H]1C.Cl.Cl.Cl.Cl.Cl`, the FIC with Pseudomonas aeruginosa [1] is 0.063. The “fold change (FC)” value with Pseudomonas aeruginosa [2] was 4. Moreover, the MIC with Pseudomonas aeruginosa [3] amounted to 0.125 µg/mL.

The values above are taken from ChEMBL document CHEMBL4715829, “Heterodimeric Rifampicin-Tobramycin conjugates break intrinsic resistance of Pseudomonas aeruginosa to doxycycline and chloramphenicol in vitro and in a Galleria mellonella in vivo model” (Eur J Med Chem, 2019).
